Measured values published in the supplement of paper PMC10307832.

Columns and labels:
Test in all cases: relative viability (nuclei count vs DMSO), 5 days (fraction); higher = more cells survive
Axitinib + Olaparib = compound: CNC(=O)c1ccccc1Sc1ccc2c(/C=C/c3ccccn3)n[nH]c2c1 [Axitinib] + O=C(c1cc(Cc2n[nH]c(=O)c3ccccc23)ccc1F)N1CCN(C(=O)C2CC2)CC1 [Olaparib] (partner 8 µM)
Outline: (§1)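 For relative viability, nuclei counts in treated wells were divided by those in vehicle wells. Lung cancer cell lines had been pin-tool dosed in 1536-well plates the day after seeding and cultured for 5 days, then fixed and stained in one step (final 0.05% Triton X-100, 1% formaldehyde, 1 ug/ml Hoechst) and imaged at 4×. Doses were one drug alone or a fixed anchor-drug dose plus five library-drug doses (not always all listed) in √10 steps, and values are duplicate-plate medians.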

Axitinib + Pemetrexed = compound: CNC(=O)c1ccccc1Sc1ccc2c(/C=C/c3ccccn3)n[nH]c2c1 [Axitinib] + Nc1nc2[nH]cc(CCc3ccc(C(=O)N[C@@H](CCC(=O)O)C(=O)O)cc3)c2c(=O)[nH]1 [Pemetrexed] (partner 0.2 µM)
Outline: as §1

[1] = compound: CC1=CC=C(C=C1)C(=O)CN2C3=C(CCCC3)SC2=N [Pifithrin_alpha] + O=C(c1cc(Cc2n[nH]c(=O)c3ccccc23)ccc1F)N1CCN(C(=O)C2CC2)CC1 [Olaparib] (partner 8 µM)
Outline: as §1

Axitinib + Phenformin = compound: CNC(=O)c1ccccc1Sc1ccc2c(/C=C/c3ccccn3)n[nH]c2c1 [Axitinib] + N=C(N)NC(=N)NCCc1ccccc1 [Phenformin] (partner 250 µM)
Outline: as §1

Cell Line	relative viability (Axitinib + Olaparib; first compound 0.005 µM)	relative viability (Axitinib + Olaparib; first compound 0.01581 µM)	relative viability (Axitinib + Olaparib; first compound 0.05 µM)	relative viability (Axitinib + Olaparib; first compound 0.1581 µM)	relative viability (Axitinib + Olaparib; first compound 0.5 µM)	relative viability (Axitinib + Pemetrexed; first compound 0.005 µM)	relative viability (Axitinib + Pemetrexed; first compound 0.01581 µM)	relative viability (Axitinib + Pemetrexed; first compound 0.05 µM)	relative viability (Axitinib + Pemetrexed; first compound 0.1581 µM)	relative viability (Axitinib + Pemetrexed; first compound 0.5 µM)	relative viability ([1]; first compound 1 µM)	relative viability ([1]; first compound 3.162 µM)	relative viability ([1]; first compound 10 µM)	relative viability ([1]; first compound 31.62 µM)	relative viability ([1]; first compound 100 µM)	relative viability (Axitinib + Phenformin; first compound 0.005 µM)	relative viability (Axitinib + Phenformin; first compound 0.01581 µM)	relative viability (Axitinib + Phenformin; first compound 0.05 µM)	relative viability (Axitinib + Phenformin; first compound 0.1581 µM)	relative viability (Axitinib + Phenformin; first compound 0.5 µM)
NCI-H661	0.724	0.753	0.741	0.698	0.834	0.885	0.916	0.902	0.942	0.956	0.777	0.882	0.656	0.601	0.669	0.281	0.29	0.271	0.267	0.285
NCI-H23	0.284	0.331	0.334	0.285	0.312	0.678	0.751	0.583	0.665	0.713	0.248	0.249	0.223	0.191	0.177	0.577	0.842	0.857	0.708	0.847
PC-14	0.326	0.368	0.275	0.4	0.24	0.135	0.114	0.158	0.137	0.142	0.253	0.319	0.218	0.188	0.111	0.645	–	0.714	0.559	0.797
NCI-H522	0.61	0.639	0.641	0.562	0.748	1.22	1.14	1.07	1.07	0.944	0.594	0.604	0.618	0.516	0.564	0.537	0.669	0.698	0.555	0.658
H3255	0.615	0.565	0.566	0.572	0.639	0.531	0.527	0.568	0.568	0.578	0.603	0.562	0.53	0.44	0.485	0.368	0.236	0.335	0.358	0.377
NCI-H3122	0.571	0.629	0.59	0.598	0.652	0.218	0.196	0.219	0.193	0.212	0.635	0.48	0.511	0.291	0.389	0.347	0.369	0.397	0.379	0.415
NCI-H2009	0.724	0.686	0.698	0.722	0.819	0.997	1.06	1	1.1	1.05	0.701	0.903	0.594	0.286	0.614	0.492	0.497	0.506	0.513	0.577
HCC-827	0.617	0.566	0.66	0.62	0.812	0.228	0.158	0.279	0.296	0.275	0.248	0.672	0.715	0.355	0.648	0.408	0.4	0.419	0.381	0.459
